Measurements taken from US10526339B2, “Substituted glucosepanes and compositions thereof” (YALE UNIVERSITY, priority 2015, dated 2020).

Assays:
[1] = Glucosepane pKa study (UV pH titration)
Source text: The inventors next took advantage of glucospane's intrinsic spectral properties to measure the pKa of the iso-imidazole core.

[2] = Hydrogen/deuterium exchange at C-8a in D2O; assay type: physicochemical; conditions: basic conditions (aqueous NaOD), either epimer
[3] = EXSY NOESY conformational exchange (E/Z isomerization); assay type: physicochemical
Source text: With synthetic glucosepane (5) in hand, we next investigated its structural features using multidimensional NMR techniques. […] Indeed, although the original glucosepane isolation report did note the possibility of E/Z isomerism in acyclic 2-amino imidazoles, the presence of these exchange peaks in the case of glucosepane have previously been incorrectly attributed to stereoisomerism at the C-8a stereocenter.^(35) Using an EXSY (EXchange SpectroscopY) NOESY sequence,^(34) the inventors were able to calculate an approximate rate for this conformational exchange process on the order of 3 s^−1 in D2O.^28
The integral ratios and tm were used to calculate an approximate rate by the following formula:^5
[formula] Xa=mole fraction of conformer A Xb=mole fraction of conformer B Iaa=integral intensity for diagonal peak (conformer A) Ibb=integral intensity for diagonal peak (conformer B) Iab and Iba=integral intensity for cross-peak Sample calculation with the data provided above: […]

Row | SMILES | pKa [1] | time for quantitative hydrogen/deuterium exchange at the C-8a H-atom [2] | approximate rate of conformational exchange (E/Z isomerization about exocyclic C2-N bond) ([3]; in D2O, EXSY NOESY) | k ([3]; sample calculation from 2D NOESY integrals, tm 1.00 sec)
1 | N[C@@H](CCCCN1C[C@@H](O)[C@@H](O)C[C@@H]2N=C(NCCC[C@H](N)C(=O)O)N=C21)C(=O)O (stereo in doubt) [Compound 5, Glucosepane Tris-Trifluoroacetate] | ~12 | < 60 min | ~3 s⁻¹ | –
2 | N[C@@H](CCCCN1C[C@@H](O)[C@@H](O)C[C@@H]2N=C(NCCC[C@H](N)C(=O)O)N=C21)C(=O)O [Compound 5, Glucosepane Tris-Trifluoroacetate] | – | – | – | 2.89 s⁻¹
